Data on one molecule can be found in patent US20100227841A1, “Patient populations and treatment methods” (Harbor BioSciencs, Inc., priority 2008, published 2010).

Assay [1] concerns Zucker Diabetic Fatty (ZDF) rats. As to the kind of experiment: Zucker Diabetic Fatty (ZDF) rat study (glucose, clamp, adipose histology, lipid profiles). The assay is classed as in vivo. The protocol: The study was staggered into 6 cohorts conducted on different days. Forty-two male Zucker Diabetic Fatty (ZDF) rats and six Zucker Fatty rats at 7-week of age were obtained from Charles River laboratories (Wilmington, Mass.). The rats were housed individually in polycarbonate cages in a temperature-controlled room on a 12 h: 12 h light: dark cycle with the lights on at 0600 h. Rats were fed ad libitum except during the experiments. After one week of acclimation to environmental conditions, the ZDF rats began daily oral treatment for 32 to 35 days with vehicle (n=18), 100 mg/kg/day 17α-ethynylandrost-5-ene-3β,7β,17β-triol (n=15), or 10 mg/kg/day rosiglitazone (n=9).
Glucose levels were measured using a One-Touch glucometer (Lifescan). Extra serum samples were collected for free fatty acid (FFA), free glycerol, pyruvate, and lactate measurements. Glucose, insulin and pyruvate tolerance tests were performed on 6 hr fasted rats. For GTT, animals were orally gavaged with glucose (1 g/kg), whereas for ITT, 0.35 units/kg insulin (Novolin R, Novo-Nordisk) was injected intraperitoneally. Blood samples were taken at basal and 15, 30, 60, 90 and 120 min after injection. For the pyruvate tolerance test (PTT), 1 g/kg of pyruvate was used.
Dual jugular venous cannulae and one carotid arterial cannula were implanted in rats. The rats were allowed to recover for 4 to 5 days before clamp procedure. The hyperinsulinemic euglycemic clamp experiments began with a priming injection (7.5 μCi/0.2 ml) and constant infusion (0.25 μCi/min) of D-[3-^3H] glucose (Du Pont-NEN, Boston, Mass.). After 60 min of tracer equilibration and basal sampling at t=−10 and 0 min, glucose (50% dextrose, variable infusion; Abbott) and tracer (0.25 μCi/min) plus insulin ([…]) were infused into the jugular vein. Small blood samples were drawn at 10-min intervals and immediately analyzed for glucose to maintain the integrity of the glucose clamp throughout the duration of the experiment. Blood samples were taken at t=−60 (start of experiment), −10, 0 (basal), 110, and 120 (end of experiment) min to determine glucose-specific activity and insulin, and free fatty acid (FFA). To ensure accuracy, basal and terminal sampling was performed twice at 10-min intervals. The achievement of steady-state conditions (100 mg/dl±5 mg/dl) was confirmed at the end of the clamp by measuring blood glucose every 10 min and ensuring that steady state for glucose infusion and plasma glucose levels were maintained for a minimum of 20 min. All blood samples were immediately centrifuged, and plasma was stored at −80° C. for subsequent analysis.
Following a 3-day recovery after clamp, rats were fasted 6 hours and euthanized. Tissues were harvested at basal state or acute insulin-stimulated state (5 U/kg). Insulin levels were analyzed by ELISA assay (Alpco Diagnostics). FFA levels were measured by enzymatic assay (Wako Diagnostics). Glycerol levels were measured using an assay kit from Sigma. Lactate and pyruvate assay kits were obtained from Biovision. TNFα and IL-1βwere measured by ELISA assays (Biosource).
Immunohistochemistry and quantification of crown-like structure (CLS) were done. These studies were conducted using paraffin-embedded adipose (epididymal) tissue sections from the rats incubated with MAC-2 antibody (Abcam) at a 1:100 dilution overnight at 4° C. Subsequently, biotinylated anti-rat secondary antibody (BD Bioscience) was used at 1:100 dilution, followed by 1:500 HRP-Streptavidin (Jackson ImmunoResearch) and development in substrate chromogen. Slides were counterstained with Mayer's and mounted with Vectashield mounting media with DAPI (Vector). Both bright field (MAC-2) and fluorescent photographs (DAPI) were taken of 3 representative fields per slide in a blinded fashion using a fluorescent microscope (10× objective).
Gene expression analyses used total RNA extracted from tissue with Purelink total RNA purification system (Invitrogen) following the manufacturer's protocol.

In assay [2] the test system is RAW264.7 macrophage cells. Nature of the assay: Macrophage chemotaxis assay with 3T3-L1 adipocyte conditioned medium. The assay is classed as cell-based. The conditions noted are these: p<0.05. How it is done: The macrophage chemotaxis assay was conducted with differentiated 3T3-L1 adipocytes (day +11 post differentiation) incubated for 24 hours with compounds (10 ng/mL TNFα with or without 100 nM 17α-ethynylandrost-5-ene-3β,7β,17β-triol) or vehicle in DMEM with 0.2% FFA- and endotoxin-free BSA. Conditioned medium (CM) was collected and kept frozen in single-use aliquots. For the chemotaxis assay, 600 μl/well of adipocyte CM was aliquoted into 24-well tissue culture plates. 2×10^5 RAW264.7 macrophage cells resuspended in DMEM containing 0.2% BSA were plated in the upper transwell chamber ([…], 24-transwell format; Corning, Lowell, Mass.). After 3 hours of migration, the RAW264.7 cells were fixed in formalin and stained with DAPI. Cells in the upper chamber that had not migrated were removed. Cells found on the filter facing the lower chamber were counted as cells having performed chemotaxis and quantified with the Simple PCI imaging software (Compix Inc., Cranberry Township, Pa.).

Where [3] appears, read: ZDF rats, 100 mg/kg/d, throughout the study, one week sufficient.
[4] abbreviates: euglycemic-hyperinsulinemic clamp, triol 100 mg/kg/d, rosiglitazone 10 mg/kg/d (more robust).
The mark [5] stands for this setting: TNFα-treated adipocyte CM, adipocytes pretreated.

SMILES strings stand for the structures.

`C#C[C@]1(O)CC[C@H]2[C@@H]3[C@@H](O)C=C4C[C@@H](O)CC[C@]4(C)[C@H]3CC[C@@]21C` [17α-ethynylandrost-5-ene-3β,7β,17β-triol]: the “intracellular triacylglycerol (TAG) content in livers” value in assay [1] (ZDF rats) is given as “marked decrease”. For the same molecule, in assay [1] (ZDF rats, 100 mg/kg/d), the “decrease in serum cholesteryl esters” value is listed as 59%, the “decrease in serum total cholesterol levels” value is reported as 25%, the “gross pathology of the kidneys due to diabetes” value is listed as “greatly ameliorated” and the “level of free cholesterol in epididymal white adipose tissue (WAT)” value is “reduced”. Also, in assay [1] (ZDF rats, 100 mg/kg/d), the “other major lipid classes in WAT” value is on record as “not significantly altered”, the “reduction of hepatic cholesteryl ester levels” value is recorded as 73%, the “reduction of total cholesterol content in the liver” value was 15% and the “serum free cholesterol levels” value is “increase”. Also, the plasma insulin levels entry in assay [1] (ZDF rats, 100 mg/kg/d, one week of treatment) is “normalize”. In addition, in assay [1] (setting [3]), the fasting glucose levels result is on record as “completely normalized” and the fed glucose levels entry is recorded as “completely normalized”. Moreover, the “adipose tissue macrophage (ATM) content, Mac-2 staining” value in assay [1] (ZDF rats, epididymal adipose tissue sections) is on record as “marked reduction”. In addition, in assay [1] (ZDF rats, gene expression), the “HMG CoA reductase expression” value is “increased” and the “low density lipoprotein receptor (LDLR) expression” value is given as “increased”. Moreover, in assay [1] (ZDF rats, p<0.05), the “MCP-1 in adipose tissue” value is “decrease” and the “TNFα in adipose tissue” value was “decrease”. For the same molecule, in assay [1] (clamp, triol 100 mg/kg/d, rosiglitazone 10 mg/kg/d), the “Basal rates of hepatic glucose production (HGP)” value was “equally reduced”. In addition, in assay [1] (setting [4]), the glucose infusion rate result is given as “increase” and the insulin-stimulated glucose disposal result is “increase”. For the same molecule, in assay [2] (setting [5]), the “macrophage secretion of CCL5/RANTES” value is listed as “significantly decreased” and the “macrophage secretion of MCP-1/CCL2” value is on record as “significantly decreased”. For the same molecule, the “reduction of macrophage migration stimulated by CM from TNFα-treated adipocytes” value in assay [2] (adipocytes pretreated with 100 nM) is listed as approximately 30%.
